Assay results taken from patent US20260184663A1, “INDENE COMPOUNDS, PHARMACEUTICAL COMPOSITIONS THEREOF, AND THEIR THERAPEUTIC APPLICATIONS” (NucMito Pharmaceuticals co. Ltd., priority 2022, published 2026).
Like-named read-outs stand apart in the source and are kept apart here.

What was measured:
Format in all cases: cell-based
[1] = test system: alpha-smooth muscle actin (α-SMA); assay: Inhibition of TGF-β induced expression of alpha-smooth muscle actin (α-SMA) in CFSC cells (western blot); conditions: compound at 10 μM, TGF-β (10 ng/mL), 24 hours, band intensity vs TGF-β only
Outline: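 Values are percent reduction of α-SMA band intensity relative to cells given TGF-β alone, quantified by Western blot densitometry with β-actin probed. Compound was applied at 10 μM alongside 10 ng/mL TGF-β to serum-free CFSC cultures for 24 h at 37 °C.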

[2] = test system: MDA-MB-231 (breast cancer); assay: Antiproliferative activity (CCK-8 cell viability), MDA-MB-231; conditions: Homo sapiens, 72 h, read-out: Antiproliferative activity in cancerous cells, MDA-MB-231 (inhibition of cell growth); for inhibition at 3.3 µM: Compound concentration: 3.3 μM; for inhibition at 10 µM: Compound concentration: 10 μM; for inhibition at 30 µM: Compound concentration: 30 μM
Outline: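 In this CCK-8 viability assay, MDA-MB-231 cells maintained in Dulbecco's modified Eagle's medium containing 10% fetal bovine serum were placed in 96-well plates (2,000-5,000 cells/well) and treated with compound for 72 h at 37° C. A 4 h incubation with 10 μL CCK-8 followed, plates were read at 450 nm, and viability was expressed against DMSO vehicle wells across replicates.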

[3] = test system: B16F10 (malignant melanoma); assay: Antiproliferative activity (CCK-8 cell viability), B16F10; conditions: Mus musculus, 72 h, read-out: Antiproliferative activity in cancerous cells, B16F10 (inhibition of cell growth); for inhibition at 3.3 µM: B16-F10, Compound concentration: 3.3 μM; for inhibition at 10 µM: B16-F10, Compound concentration: 10 μM; for inhibition at 30 µM: B16-F10, Compound concentration: 30 μM
Outline: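 Attached B16F10 cells in 96-well plates were incubated with compound at 37° C for 72 h, followed by 10 μL CCK-8 reagent per well and a further 4 h incubation. A multi-well plate reader measured absorbance at 450 nm. Percent viability across replicates was calculated against DMSO vehicle-treated cells.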

[4] = test system: A549 (lung adenocarcinoma); assay: Antiproliferative activity (CCK-8 cell viability), A549; conditions: Homo sapiens, 72 h; for inhibition at 3.3 µM: Compound concentration: 3.3 μM; for inhibition at 10 µM: Compound concentration: 10 μM; for inhibition at 30 µM: Compound concentration: 30 μM
Outline: (§1)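 Cells were seeded at 2,000-5,000/well (HeLa in MEM, HepG2 and SW480 in DMEM, A549 in F-12K, all with 10% FBS) and treated with compound at 3.3, 10 or 30 μM for 72 h at 37° C. CCK-8 was added for 4 h, absorbance was read at 450 nm, and viability was expressed relative to DMSO-treated wells.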

HepG2 (liver cancer) = assay: Antiproliferative activity (CCK-8 cell viability), HepG2; conditions: Homo sapiens, 72 h, read-out: Antiproliferative activity in cancerous cells, HepG2 (inhibition of cell growth); for inhibition at 3.3 µM: Compound concentration: 3.3 μM; for inhibition at 10 µM: Compound concentration: 10 μM; for inhibition at 30 µM: Compound concentration: 30 μM
Outline: as §1

SW480 (colon cancer) = assay: Antiproliferative activity (CCK-8 cell viability), SW480; conditions: Homo sapiens, 72 h, read-out: Antiproliferative activity in cancerous cells, SW480 (inhibition of cell growth); for inhibition at 3.3 µM: Compound concentration: 3.3 μM; for inhibition at 10 µM: Compound concentration: 10 μM; for inhibition at 30 µM: Compound concentration: 30 μM
Outline: as §1

[5] = test system: A431 (epidermoid carcinoma); assay: Antiproliferative activity (CCK-8 cell viability), A431; conditions: Homo sapiens, 72 h, read-out: Antiproliferative activity in cancerous cells, A431 (inhibition of cell growth); for inhibition at 3.3 µM: A-431, Compound concentration: 3.3 μM; for inhibition at 10 µM: A-431, Compound concentration: 10 μM; for inhibition at 30 µM: A-431, Compound concentration: 30 μM
Outline: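 Cell viability of compound-treated A431 cells was measured with a Cell Counting Kit-8. Each well received 10 μL of CCK-8 after 72 h of compound exposure, followed by 4 h incubation at 37° C. and a 450 nm plate-reader measurement. Percent viability was calculated relative to DMSO controls across replicates.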

HeLa (cervical cancer) = assay: Antiproliferative activity (CCK-8 cell viability), HeLa; conditions: Homo sapiens, 72 h, read-out: Antiproliferative activity in cancerous cells, HELA (inhibition of cell growth); for inhibition at 3.3 µM: Compound concentration: 3.3 μM; for inhibition at 10 µM: Compound concentration: 10 μM; for inhibition at 30 µM: Compound concentration: 30 μM
Outline: as §1

[6] = read-out: Antiproliferative activity in cancerous cells, A549 (inhibition of cell growth)

Compound | inhibition at 10 µM [1] [%] | inhibition at 3.3 µM [2] [%] | inhibition at 10 µM [2] [%] | inhibition at 30 µM [2] [%] | inhibition at 3.3 µM [3] [%] | inhibition at 10 µM [3] [%] | inhibition at 30 µM [3] [%] | inhibition at 3.3 µM [4, 6] [%] | inhibition at 10 µM [4, 6] [%] | inhibition at 30 µM [4, 6] [%] | inhibition at 3.3 µM (HepG2 (liver cancer)) [%] | inhibition at 10 µM (HepG2 (liver cancer)) [%] | inhibition at 30 µM (HepG2 (liver cancer)) [%] | inhibition at 3.3 µM (SW480 (colon cancer)) [%] | inhibition at 10 µM (SW480 (colon cancer)) [%] | inhibition at 30 µM (SW480 (colon cancer)) [%] | inhibition at 3.3 µM [5] [%] | inhibition at 10 µM [5] [%] | inhibition at 3.3 µM (HeLa (cervical cancer)) [%] | inhibition at 10 µM (HeLa (cervical cancer)) [%] | further results
CC1=C(CC(=O)O)c2c(F)cc(F)cc2/C1=C\c1ccc(C(C)C)cc1 [D8, (Z)-2-(4,6-Difluoro-1-(4-isopropylbenzylidene)-2-methyl-1H-inden-3-yl)acetic acid] | 50 to 80 | 30 to 50 | ≥ 50 | ≥ 50 | < 30 | ≥ 50 | ≥ 50 | < 30 | 30 to 50 | ≥ 50 | < 30 | < 30 | ≥ 50 | < 30 | < 30 | ≥ 50 | < 30 | < 30 | ≥ 50 | ≥ 50 | inhibition at 30 µM [5]: ≥ 50%; inhibition at 30 µM (HeLa (cervical cancer)): ≥ 50%
C=CC1=C(CC(=O)O)c2ccccc2/C1=C\c1ccc(Oc2ccc(F)cc2)cc1 [C25, (Z)-2-(1-(4-(4-Fluorophenoxy)benzylidene)-2-vinyl-1H-inden-3-yl)acetic acid] | < 30 | ≥ 50 | ≥ 50 | – | ≥ 50 | ≥ 50 | – | < 30 | 30 to 50 | – | < 30 | < 30 | – | 30 to 50 | 30 to 50 | – | < 30 | < 30 | 30 to 50 | 30 to 50 | inhibition at 30 µM ([4]; read-out: Antiproliferative activity in cancerous cells, A549): 30 to 50%
O=C(O)CC1=C(Cc2ccc(C(F)(F)F)cc2)/C(=C/c2cccc(COc3ccccc3)c2)c2ccc(F)cc21 [A10, (Z)-2-(5-Fluoro-1-(3-(phenoxymethyl)benzylidene)-2-(4-(trifluoromethyl)-benzyl)-1H-inden-3-yl)acetic acid] | > 80 | ≥ 50 | ≥ 50 | – | ≥ 50 | ≥ 50 | – | 30 to 50 | ≥ 50 | – | ≥ 50 | ≥ 50 | – | ≥ 50 | ≥ 50 | – | ≥ 50 | ≥ 50 | ≥ 50 | ≥ 50 | –
CC(C)c1ccc(/C=C2/C(Cc3ccc(F)cc3)=C(CC(=O)O)c3cc(F)ccc32)cc1 [D2, (Z)-2-(5-Fluoro-2-(4-fluorobenzyl)-1-(4-isopropylbenzylidene)-1H-inden-3-yl)-acetic acid] | > 80 | ≥ 50 | ≥ 50 | ≥ 50 | < 30 | ≥ 50 | ≥ 50 | 30 to 50 | ≥ 50 | ≥ 50 | < 30 | ≥ 50 | ≥ 50 | < 30 | ≥ 50 | ≥ 50 | < 30 | ≥ 50 | 30 to 50 | ≥ 50 | inhibition at 30 µM [5]: ≥ 50%; inhibition at 30 µM (HeLa (cervical cancer)): ≥ 50%
C/C(=C1/C=C(CC(=O)O)c2ccccc21)c1ccc(F)cc1 [E14, (E)-2-(1-(1-(4-Fluorophenyl)ethylidene)-1H-inden-3-yl)acetic acid] | < 30 | 30 to 50 | 30 to 50 | 30 to 50 | < 30 | < 30 | 30 to 50 | < 30 | < 30 | 30 to 50 | < 30 | < 30 | < 30 | < 30 | < 30 | 30 to 50 | < 30 | < 30 | 30 to 50 | 30 to 50 | inhibition at 30 µM [5]: < 30%; inhibition at 30 µM (HeLa (cervical cancer)): ≥ 50%
O=C(O)CC1=C(Cc2ccc(Oc3ccc(F)cc3)cc2)/C(=C/C2CC2)c2ccc(F)cc21 [A106, (Z)-2-(1-(Cyclopropylmethylene)-5-fluoro-2-(4-(4-fluorophenoxy)benzyl)-1H-inden-3-yl)acetic acid] | > 80 | < 30 | ≥ 50 | – | 30 to 50 | ≥ 50 | – | 30 to 50 | ≥ 50 | – | < 30 | ≥ 50 | – | < 30 | ≥ 50 | – | < 30 | ≥ 50 | 30 to 50 | ≥ 50 | –
CC(C)c1ccc(/C=C2/C(Cc3ccc(Oc4ccc(F)cc4)cc3)=C(CC(=O)O)c3cc(F)ccc32)cc1 [A103, (Z)-2-(5-Fluoro-2-(4-(4-fluorophenoxy)benzyl)-1-(4-isopropylbenzylidene)-1H-inden-3-yl)acetic acid] | > 80 | ≥ 50 | ≥ 50 | – | ≥ 50 | ≥ 50 | – | ≥ 50 | ≥ 50 | – | ≥ 50 | ≥ 50 | – | ≥ 50 | ≥ 50 | – | ≥ 50 | ≥ 50 | ≥ 50 | ≥ 50 | –
CCc1ccc2c(c1)C(CC(=O)O)=C(C)/C2=C/c1ccc(COc2ccccc2)cc1 [B5, (Z)-2-(5-Ethyl-2-methyl-1-(4-(phenoxymethyl)benzylidene)-1H-inden-3-yl)acetic acid] | > 80 | < 30 | ≥ 50 | – | ≥ 50 | ≥ 50 | – | 30 to 50 | ≥ 50 | – | ≥ 50 | ≥ 50 | – | ≥ 50 | ≥ 50 | – | ≥ 50 | ≥ 50 | < 30 | ≥ 50 | –
